Experimental data as given in patent EP4467141A1, “PYRAZOLO-QUINOLINES AS SELECTIVE INHIBITORS OF GENOTOXIC STRESS-INDUCED IKK/NF- KB PATHWAYS FOR CANCER THERAPY” (Max-Delbrück-Centrum für Molekulare Medizin in der …, priority 2023, dated 2024).

Columns and labels:
Test in all cases: Kinase panel study
Format in all cases: biochemical
Details in all cases: read-out: Percentage of inhibition; for inhibition at 1 µM: 1000nM; for inhibition at 10 µM: 10000nM
SRPK1 = target: T1, SRPK1 (Homo sapiens, UniProt Q96SB4)
T1 construct: purchased Thermo Fisher Scientific
How it was run: (§1)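 Percent inhibition of each kinase by the test compound, given at either 1 µM or 10 µM, came from a contracted panel run by ZLyte or Adapta protocol.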

FGFR2 = target: T2, FGFR2 (Homo sapiens, UniProt P21802)
T2 construct: purchased Thermo Fisher Scientific
How it was run: as §1

CDK5/p25 = target: T3, CDK5/p25 (Homo sapiens, UniProt Q00535)
T3 construct: purchased Thermo Fisher Scientific
How it was run: as §1

RPS6KA5 (MSK1) = target: T4, RPS6KA5 (MSK1) (Homo sapiens, UniProt O75582)
T4 construct: purchased Thermo Fisher Scientific
How it was run: as §1

RET A883F = target: T5, RET A883F (Homo sapiens, UniProt P07949, A883F)
T5 construct: purchased Thermo Fisher Scientific
How it was run: as §1

PEAK1 = target: T6, PEAK1 (Homo sapiens, UniProt Q9H792)
T6 construct: purchased Thermo Fisher Scientific
How it was run: as §1

CDC42 BPG (MRCKG) = target: T7, CDC42 BPG (MRCKG) (Homo sapiens, UniProt Q6DT37)
T7 construct: purchased Thermo Fisher Scientific
How it was run: as §1

SNF1LK2 = target: T8, SNF1LK2 (Homo sapiens, UniProt Q9H0K1)
T8 construct: purchased Thermo Fisher Scientific
How it was run: as §1

RPS6KB1 (p70S6K) = target: T9, RPS6KB1 (p70S6K) (Homo sapiens, UniProt P23443)
T9 construct: purchased Thermo Fisher Scientific
How it was run: as §1

CDK5/p35 = target: T10, CDK5/p35 (Homo sapiens, UniProt Q00535)
T10 construct: purchased Thermo Fisher Scientific
How it was run: as §1

RET = target: T11, RET (Homo sapiens, UniProt P07949)
T11 construct: purchased Thermo Fisher Scientific
How it was run: as §1

ADRBK1 (GRK2) = target: T12, ADRBK1 (GRK2) (Homo sapiens, UniProt P25098)
T12 construct: purchased Thermo Fisher Scientific
T12 sequence (P25098 1-689): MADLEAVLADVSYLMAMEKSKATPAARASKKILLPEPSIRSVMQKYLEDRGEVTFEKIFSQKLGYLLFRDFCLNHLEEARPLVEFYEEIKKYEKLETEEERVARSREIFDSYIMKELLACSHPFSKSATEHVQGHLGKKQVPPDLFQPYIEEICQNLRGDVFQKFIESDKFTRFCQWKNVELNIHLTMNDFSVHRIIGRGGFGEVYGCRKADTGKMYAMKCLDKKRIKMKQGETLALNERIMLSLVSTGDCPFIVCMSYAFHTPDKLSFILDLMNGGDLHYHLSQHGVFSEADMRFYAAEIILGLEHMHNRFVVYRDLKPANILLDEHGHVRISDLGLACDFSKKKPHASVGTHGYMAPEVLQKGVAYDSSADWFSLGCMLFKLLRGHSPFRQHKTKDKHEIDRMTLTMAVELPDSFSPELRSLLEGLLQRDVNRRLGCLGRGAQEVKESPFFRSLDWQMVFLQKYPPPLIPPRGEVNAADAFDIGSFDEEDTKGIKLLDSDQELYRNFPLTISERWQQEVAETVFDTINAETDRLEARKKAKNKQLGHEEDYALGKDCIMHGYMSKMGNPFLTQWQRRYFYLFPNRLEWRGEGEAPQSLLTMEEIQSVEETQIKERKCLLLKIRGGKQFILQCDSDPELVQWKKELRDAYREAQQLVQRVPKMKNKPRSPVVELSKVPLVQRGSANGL
How it was run: as §1

SYK = target: T13, SYK (Homo sapiens, UniProt P43405)
T13 construct: purchased Thermo Fisher Scientific
How it was run: as §1

T11 sequence (P07949 29-1114): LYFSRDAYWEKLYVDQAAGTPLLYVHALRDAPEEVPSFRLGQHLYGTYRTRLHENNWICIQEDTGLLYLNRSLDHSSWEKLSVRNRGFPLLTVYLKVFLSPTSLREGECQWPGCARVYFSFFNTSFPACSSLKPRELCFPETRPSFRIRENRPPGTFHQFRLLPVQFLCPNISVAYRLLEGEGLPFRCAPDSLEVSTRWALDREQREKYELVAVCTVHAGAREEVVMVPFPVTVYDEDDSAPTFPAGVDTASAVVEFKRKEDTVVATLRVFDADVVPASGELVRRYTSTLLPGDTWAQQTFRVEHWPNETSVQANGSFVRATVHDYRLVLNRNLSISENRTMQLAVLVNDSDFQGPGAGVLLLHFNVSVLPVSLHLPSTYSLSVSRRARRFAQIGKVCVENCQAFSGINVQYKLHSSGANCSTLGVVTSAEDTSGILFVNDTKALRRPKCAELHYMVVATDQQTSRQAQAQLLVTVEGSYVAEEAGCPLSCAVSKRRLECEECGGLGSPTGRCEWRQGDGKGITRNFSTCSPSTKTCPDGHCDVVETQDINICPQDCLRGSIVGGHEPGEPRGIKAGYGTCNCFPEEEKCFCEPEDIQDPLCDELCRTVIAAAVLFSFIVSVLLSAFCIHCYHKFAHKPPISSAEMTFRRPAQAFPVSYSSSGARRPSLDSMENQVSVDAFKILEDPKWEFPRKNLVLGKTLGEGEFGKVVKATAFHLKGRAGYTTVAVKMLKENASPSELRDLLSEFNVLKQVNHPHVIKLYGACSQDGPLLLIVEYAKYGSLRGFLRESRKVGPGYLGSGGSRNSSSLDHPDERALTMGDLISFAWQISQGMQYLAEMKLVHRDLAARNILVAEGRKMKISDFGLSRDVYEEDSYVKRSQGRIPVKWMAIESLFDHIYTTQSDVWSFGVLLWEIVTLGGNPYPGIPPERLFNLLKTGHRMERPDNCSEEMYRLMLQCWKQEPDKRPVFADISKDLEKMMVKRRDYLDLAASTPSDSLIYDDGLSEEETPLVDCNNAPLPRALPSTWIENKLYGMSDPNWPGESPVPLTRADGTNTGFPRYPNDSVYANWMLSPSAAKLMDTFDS
T6 sequence (Q9H792 whole entry): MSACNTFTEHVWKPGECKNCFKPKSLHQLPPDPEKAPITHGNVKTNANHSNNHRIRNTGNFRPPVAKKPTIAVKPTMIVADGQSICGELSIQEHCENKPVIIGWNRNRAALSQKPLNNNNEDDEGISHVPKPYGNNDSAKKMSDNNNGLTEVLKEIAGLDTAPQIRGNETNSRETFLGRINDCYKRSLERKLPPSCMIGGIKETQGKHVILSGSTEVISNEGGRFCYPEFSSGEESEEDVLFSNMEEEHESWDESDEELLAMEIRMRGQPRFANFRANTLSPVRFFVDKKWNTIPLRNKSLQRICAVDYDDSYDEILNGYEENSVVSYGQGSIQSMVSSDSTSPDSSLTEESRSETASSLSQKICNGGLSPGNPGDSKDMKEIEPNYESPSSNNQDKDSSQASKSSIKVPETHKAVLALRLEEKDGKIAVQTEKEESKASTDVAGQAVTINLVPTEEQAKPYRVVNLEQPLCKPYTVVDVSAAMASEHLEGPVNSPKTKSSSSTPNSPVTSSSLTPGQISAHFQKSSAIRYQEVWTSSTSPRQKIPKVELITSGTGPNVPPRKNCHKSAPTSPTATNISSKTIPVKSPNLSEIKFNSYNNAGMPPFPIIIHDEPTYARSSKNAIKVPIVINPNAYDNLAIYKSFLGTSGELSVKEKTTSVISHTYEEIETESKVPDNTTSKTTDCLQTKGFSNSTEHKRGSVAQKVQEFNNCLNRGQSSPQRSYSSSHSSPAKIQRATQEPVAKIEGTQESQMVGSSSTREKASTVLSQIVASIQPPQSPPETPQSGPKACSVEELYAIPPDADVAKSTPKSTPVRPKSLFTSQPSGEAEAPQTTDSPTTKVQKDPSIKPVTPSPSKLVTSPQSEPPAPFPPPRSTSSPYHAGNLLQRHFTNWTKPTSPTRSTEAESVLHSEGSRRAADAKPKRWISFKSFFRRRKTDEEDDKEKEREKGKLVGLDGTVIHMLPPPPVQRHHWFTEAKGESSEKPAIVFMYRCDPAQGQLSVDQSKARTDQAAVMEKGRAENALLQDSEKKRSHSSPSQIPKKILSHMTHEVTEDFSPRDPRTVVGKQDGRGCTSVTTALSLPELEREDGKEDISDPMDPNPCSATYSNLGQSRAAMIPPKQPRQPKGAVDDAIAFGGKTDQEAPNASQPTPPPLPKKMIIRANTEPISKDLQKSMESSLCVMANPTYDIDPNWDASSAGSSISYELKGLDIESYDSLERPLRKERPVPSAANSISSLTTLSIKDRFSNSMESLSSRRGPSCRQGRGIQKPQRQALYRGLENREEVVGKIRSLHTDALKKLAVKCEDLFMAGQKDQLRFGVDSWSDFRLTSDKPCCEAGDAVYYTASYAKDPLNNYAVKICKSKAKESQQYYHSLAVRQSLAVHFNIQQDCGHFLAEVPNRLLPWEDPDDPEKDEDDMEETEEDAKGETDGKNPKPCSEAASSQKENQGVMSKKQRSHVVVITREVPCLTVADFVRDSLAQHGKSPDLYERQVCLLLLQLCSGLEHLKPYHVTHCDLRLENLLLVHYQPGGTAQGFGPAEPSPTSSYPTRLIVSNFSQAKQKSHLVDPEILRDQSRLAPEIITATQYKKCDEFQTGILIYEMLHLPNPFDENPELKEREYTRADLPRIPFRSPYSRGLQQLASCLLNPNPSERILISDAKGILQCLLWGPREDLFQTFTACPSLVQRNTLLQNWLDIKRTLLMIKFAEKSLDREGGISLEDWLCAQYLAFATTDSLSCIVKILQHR
T9 sequence (P23443 whole entry): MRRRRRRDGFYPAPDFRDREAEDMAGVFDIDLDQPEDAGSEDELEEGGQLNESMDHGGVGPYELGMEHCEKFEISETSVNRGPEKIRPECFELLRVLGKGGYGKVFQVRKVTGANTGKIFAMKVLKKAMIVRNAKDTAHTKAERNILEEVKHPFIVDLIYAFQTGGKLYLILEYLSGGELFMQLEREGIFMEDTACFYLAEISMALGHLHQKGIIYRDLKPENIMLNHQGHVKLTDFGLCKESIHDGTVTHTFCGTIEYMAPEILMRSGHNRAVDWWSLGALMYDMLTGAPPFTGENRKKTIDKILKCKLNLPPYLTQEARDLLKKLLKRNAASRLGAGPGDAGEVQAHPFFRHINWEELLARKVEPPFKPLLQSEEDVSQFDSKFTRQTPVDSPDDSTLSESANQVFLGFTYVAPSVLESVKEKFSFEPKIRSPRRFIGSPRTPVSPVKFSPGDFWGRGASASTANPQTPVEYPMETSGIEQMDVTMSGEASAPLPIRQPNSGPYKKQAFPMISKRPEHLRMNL
T7 sequence (Q6DT37 whole entry): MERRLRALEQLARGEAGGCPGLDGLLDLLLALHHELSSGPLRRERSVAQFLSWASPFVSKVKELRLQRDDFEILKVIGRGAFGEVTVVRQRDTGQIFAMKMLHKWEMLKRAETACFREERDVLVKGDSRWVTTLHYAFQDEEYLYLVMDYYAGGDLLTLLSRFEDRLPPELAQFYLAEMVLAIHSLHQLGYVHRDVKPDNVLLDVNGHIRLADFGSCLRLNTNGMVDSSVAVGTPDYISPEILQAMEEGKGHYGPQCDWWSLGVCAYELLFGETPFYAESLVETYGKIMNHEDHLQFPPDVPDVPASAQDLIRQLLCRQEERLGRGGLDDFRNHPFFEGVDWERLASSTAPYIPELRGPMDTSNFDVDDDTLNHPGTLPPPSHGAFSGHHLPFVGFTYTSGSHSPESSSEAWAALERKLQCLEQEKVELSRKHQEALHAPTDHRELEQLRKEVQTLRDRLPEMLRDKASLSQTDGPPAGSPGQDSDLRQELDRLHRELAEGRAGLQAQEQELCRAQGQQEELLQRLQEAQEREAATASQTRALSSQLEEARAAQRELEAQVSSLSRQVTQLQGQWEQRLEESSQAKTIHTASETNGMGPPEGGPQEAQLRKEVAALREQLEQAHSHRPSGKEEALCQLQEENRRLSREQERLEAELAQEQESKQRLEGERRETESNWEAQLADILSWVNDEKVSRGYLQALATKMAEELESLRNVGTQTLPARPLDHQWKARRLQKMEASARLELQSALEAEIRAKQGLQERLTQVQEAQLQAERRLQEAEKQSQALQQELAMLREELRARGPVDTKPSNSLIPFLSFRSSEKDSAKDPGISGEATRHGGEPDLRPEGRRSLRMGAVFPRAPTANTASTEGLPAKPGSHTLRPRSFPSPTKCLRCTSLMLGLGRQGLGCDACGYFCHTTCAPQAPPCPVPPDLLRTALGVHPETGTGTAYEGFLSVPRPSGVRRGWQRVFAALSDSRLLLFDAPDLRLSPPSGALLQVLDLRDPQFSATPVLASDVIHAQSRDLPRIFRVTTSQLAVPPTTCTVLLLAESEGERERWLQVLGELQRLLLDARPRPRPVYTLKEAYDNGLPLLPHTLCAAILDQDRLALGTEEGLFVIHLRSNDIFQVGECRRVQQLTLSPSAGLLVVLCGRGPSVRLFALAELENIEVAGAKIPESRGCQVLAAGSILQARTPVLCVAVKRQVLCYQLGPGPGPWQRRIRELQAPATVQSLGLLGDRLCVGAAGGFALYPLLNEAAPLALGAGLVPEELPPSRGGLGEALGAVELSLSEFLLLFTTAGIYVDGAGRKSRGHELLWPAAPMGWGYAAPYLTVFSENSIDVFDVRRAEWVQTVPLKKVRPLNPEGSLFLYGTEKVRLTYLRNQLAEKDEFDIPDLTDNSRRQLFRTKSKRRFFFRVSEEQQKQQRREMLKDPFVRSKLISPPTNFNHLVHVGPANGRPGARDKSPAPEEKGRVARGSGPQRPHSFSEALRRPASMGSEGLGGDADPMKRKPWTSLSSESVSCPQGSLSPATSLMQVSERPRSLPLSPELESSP
T5 sequence (P07949 29-1114 A883F): as the sequence (P07949 29-1114) above, with A855F counted along it

| Structure (SMILES) | inhibition at 1 µM (SRPK1) [%] | inhibition at 10 µM (SRPK1) [%] | inhibition at 1 µM (FGFR2) [%] | inhibition at 10 µM (FGFR2) [%] | inhibition at 1 µM (CDK5/p25) [%] | inhibition at 10 µM (CDK5/p25) [%] | inhibition at 1 µM (RPS6KA5 (MSK1)) [%] | inhibition at 10 µM (RPS6KA5 (MSK1)) [%] | inhibition at 1 µM (RET A883F) [%] | inhibition at 10 µM (RET A883F) [%] | inhibition at 1 µM (PEAK1) [%] | inhibition at 10 µM (PEAK1) [%] | inhibition at 1 µM (CDC42 BPG (MRCKG)) [%] | inhibition at 10 µM (CDC42 BPG (MRCKG)) [%] | inhibition at 1 µM (SNF1LK2) [%] | inhibition at 10 µM (SNF1LK2) [%] | inhibition at 1 µM (RPS6KB1 (p70S6K)) [%] | inhibition at 10 µM (RPS6KB1 (p70S6K)) [%] | inhibition at 1 µM (CDK5/p35) [%] | inhibition at 10 µM (CDK5/p35) [%] | other results |
| --- | --- | --- | --- | --- | --- | --- | --- | --- | --- | --- | --- | --- | --- | --- | --- | --- | --- | --- | --- | --- | --- |
| COc1ccc2c(c1OC)c(=O)n1c3ccc(O)cc3c3ccnc2c31 [MW01, 5-Hydroxy-10,11-dimethoxy-9H-benzo[c]indolo[3,2,1-ij][1,5]naphthyridin-9-one] | 12 | 15 | 13 | 11 | 4 | 12 | 5 | 25 | 10 | 24 | -1 | 16 | 1 | 5 | 5 | 12 | 19 | 15 | 17 | 14 | inhibition at 1 µM (RET): 15%; inhibition at 10 µM (RET): 34%; inhibition at 1 µM (ADRBK1 (GRK2)): 8%; inhibition at 10 µM (ADRBK1 (GRK2)): 17%; inhibition at 1 µM (SYK): 16%; inhibition at 10 µM (SYK): 37% |
| COc1ccc2cc3c(N)nn(C(=O)c4cccc(N(C)C)c4)c3nc2c1 [MW05, (3-Amino-7-methoxypyrazolo[3,4-b]quinolin-1-yl)-[3-(dimethylamino)phenyl]methanone] | 8 | 10 | 0 | -5 | 4 | 8 | 2 | -14 | 7 | 3 | 2 | 0 | 0 | 0 | 4 | -2 | 12 | 7 | 5 | 7 | inhibition at 1 µM (RET): 9%; inhibition at 10 µM (RET): 12%; inhibition at 1 µM (ADRBK1 (GRK2)): -1%; inhibition at 10 µM (ADRBK1 (GRK2)): 4%; inhibition at 1 µM (SYK): 5%; inhibition at 10 µM (SYK): 7% |
